Publication PMC6825221, “In silico re-engineering of a neurotransmitter to activate KCNQ potassium channels in an isoform-specific manner” (Communications Biology, 2019)

Key:
[1] = molecular target: KCNQ2/3 (Homo sapiens, UniProt O43525+O43526); assay: TEVC of KCNQ2/3 channels expressed in Xenopus oocytes; assay type: cell-based; conditions: shift in voltage dependence of activation (ΔV0.5act), TEVC in oocytes; read-out: EC50, KCNQ2/3 activation
Text: (§1) We generated cRNA transcripts encoding human KCNQ1, KCNQ2, KCNQ3, KCNQ4, KCNQ5 or GLRA1 (NM_001146040) (GenScript, Piscataway, NJ, USA) by in vitro transcription using the T7 polymerase mMessage mMachine kit (Thermo Fisher Scientific), after vector linearization, from cDNA sub-cloned into plasmids incorporating Xenopus laevis β-globin 5′ and 3′ UTRs flanking the coding region to enhance translation and cRNA stability. We quantified cRNA by spectrophotometry. […] We injected defolliculated stage V and VI Xenopus laevis oocytes (Ecocyte Bioscience, Austin, TX and Xenoocyte, Dexter, MI) with KCNQ channel α subunit (5-20 ng) or GLRA1 (20 ng) cRNAs. We incubated the oocytes at 16 °C in Barth’s saline solution (Ecocyte Bioscience) containing penicillin and streptomycin, with daily washing, for 2–5 days prior to two-electrode voltage-clamp (TEVC) recording.
(§2) For recording, oocytes were placed in a small-volume oocyte bath (Warner) and viewed them with a dissection microscope. Chemicals were sourced from Sigma, Matrix Scientific and Santa Cruz. […] All stock solutions were diluted in bath solution on the day of experiments. KCNQ2/3 channel activation was screened for using either 30 µM or 100 µM concentrations of each of the six compounds, then dose responses were conducted as appropriate. Bath solution was (in mM): 96 NaCl, 4 KCl, 1 MgCl2, 1 CaCl2, 10 HEPES (pH 7.6). Compounds were introduced into the oocyte recording bath by gravity perfusion at a constant flow of 1 ml per minute for 3 min prior to recording. Pipettes were of 1–2 MΩ resistance when filled with 3 M KCl. Currents were recorded in response to voltage pulses between −120 or −80 mV and + 40 mV at 20 mV intervals from a holding potential of −80 mV, to yield current-voltage relationships, current magnitude, and for quantifying activation rate. We analyzed data using Clampfit (Molecular Devices) and Graphpad Prism software (GraphPad, San Diego, CA, USA); values are stated as mean ± SEM. We plotted raw or normalized tail currents versus prepulse voltage and fitted with a single Boltzmann function:1 g=(A1−A2)/1+exp(V12−V)∕VS+A2, where g is the normalized tail conductance, A1 is the initial value at −∞, A2 is the final value at +∞, V1/2 is the half-maximal voltage of activation and Vs the slope factor. Activation, deactivation, wash-in and washout kinetics were fitted with single exponential functions to yield a τ value.

[2] = molecular target: KCNQ1 (Homo sapiens, UniProt P51787); assay: TEVC of homomeric KCNQ1 expressed in Xenopus oocytes; assay type: cell-based
Text: (§3) We generated cRNA transcripts encoding human KCNQ1, KCNQ2, KCNQ3, KCNQ4, KCNQ5 or GLRA1 (NM_001146040) (GenScript, Piscataway, NJ, USA) by in vitro transcription using the T7 polymerase mMessage mMachine kit (Thermo Fisher Scientific), after vector linearization, from cDNA sub-cloned into plasmids incorporating Xenopus laevis β-globin 5′ and 3′ UTRs flanking the coding region to enhance translation and cRNA stability. We quantified cRNA by spectrophotometry. We generated mutant KCNQ2 and KCNQ3 cDNAs by site-directed mutagenesis using a QuikChange kit (Stratagene, San Diego, CA) and prepared the corresponding cRNAs as above. We injected defolliculated stage V and VI Xenopus laevis oocytes (Ecocyte Bioscience, Austin, TX and Xenoocyte, Dexter, MI) with KCNQ channel α subunit (5-20 ng) or GLRA1 (20 ng) cRNAs. We incubated the oocytes at 16 °C in Barth’s saline solution (Ecocyte Bioscience) containing penicillin and streptomycin, with daily washing, for 2–5 days prior to two-electrode voltage-clamp (TEVC) recording.
(§4) We performed TEVC at room temperature using an OC-725C amplifier (Warner Instruments, Hamden, CT) and pClamp10 software (Molecular Devices, Sunnyvale, CA) 2–5 days after cRNA injection as described in the section above. For recording, oocytes were placed in a small-volume oocyte bath (Warner) and viewed them with a dissection microscope. Chemicals were sourced from Sigma, Matrix Scientific and Santa Cruz. […] All stock solutions were diluted in bath solution on the day of experiments. KCNQ2/3 channel activation was screened for using either 30 µM or 100 µM concentrations of each of the six compounds, then dose responses were conducted as appropriate. […] Currents were recorded in response to voltage pulses between −120 or −80 mV and + 40 mV at 20 mV intervals from a holding potential of −80 mV, to yield current-voltage relationships, current magnitude, and for quantifying activation rate. We analyzed data using Clampfit (Molecular Devices) and Graphpad Prism software (GraphPad, San Diego, CA, USA); values are stated as mean ± SEM. […]

[3] = molecular target: KCNQ2 (Homo sapiens, UniProt O43526); assay: TEVC of homomeric KCNQ2 expressed in Xenopus oocytes; assay type: cell-based
Text: as §1, §2

[4] = molecular target: T1, KCNQ3* (Homo sapiens, UniProt O43525, A315T); assay: TEVC of homomeric KCNQ3* (A315T KCNQ3 mutant) expressed in Xenopus oocytes; assay type: cell-based; conditions: dose response
Text: We next validated the in silico predictions using two-electrode voltage clamp of homomeric neuronal KCNQ2-5 channel isoforms expressed in Xenopus laevis oocytes. […] As in previous studies[8],[10], we used the A315T KCNQ3 mutant (KCNQ3*) that ensures large enough currents to accurately quantify voltage dependence and pharmacology of homomeric KCNQ3[16].
as §3
We performed TEVC at room temperature using an OC-725C amplifier (Warner Instruments, Hamden, CT) and pClamp10 software (Molecular Devices, Sunnyvale, CA) 2–5 days after cRNA injection as described in the section above. For recording, oocytes were placed in a small-volume oocyte bath (Warner) and viewed them with a dissection microscope. Chemicals were sourced from Sigma, Matrix Scientific and Santa Cruz. […] All stock solutions were diluted in bath solution on the day of experiments. KCNQ2/3 channel activation was screened for using either 30 µM or 100 µM concentrations of each of the six compounds, then dose responses were conducted as appropriate. Bath solution was (in mM): 96 NaCl, 4 KCl, 1 MgCl2, 1 CaCl2, 10 HEPES (pH 7.6). Compounds were introduced into the oocyte recording bath by gravity perfusion at a constant flow of 1 ml per minute for 3 min prior to recording. Pipettes were of 1–2 MΩ resistance when filled with 3 M KCl. Currents were recorded in response to voltage pulses between −120 or −80 mV and + 40 mV at 20 mV intervals from a holding potential of −80 mV, to yield current-voltage relationships, current magnitude, and for quantifying activation rate. We analyzed data using Clampfit (Molecular Devices) and Graphpad Prism software (GraphPad, San Diego, CA, USA); values are stated as mean ± SEM. […]

[5] = molecular target: KCNQ4 (Homo sapiens, UniProt P56696); assay: TEVC of homomeric KCNQ4 expressed in Xenopus oocytes; assay type: cell-based
Text: as §3
as §2, with “We performed TEVC at room temperature using an OC-725C amplifier (Warner Instruments, Hamden, CT) and pClamp10 software (Molecular Devices, Sunnyvale, CA) 2–5 days after cRNA injection as described in the section above. For” for “For”

[6] = molecular target: T2, KCNQ5 (Homo sapiens, UniProt Q9NR82); assay: TEVC of homomeric KCNQ5 expressed in Xenopus oocytes; assay type: cell-based; conditions: dose response
Text: as §3, §4

[7] = molecular target: T1, KCNQ3*; assay: [3H]GABA binding and competition, oocytes expressing KCNQ3*
Experimental: Oocytes were then washed four times in 16 °C ND96, transferred to individual wells in a 96 well plate and lysed in 0.2% SDS in ND96. Each oocyte lysate was transferred to a scintillation vial containing 5 ml Cytoscint scintillation cocktail fluid (MP Biomedicals, Santa Ana, CA). Vials were capped, shaken, and then allowed to sit at room temperature for at least 30 min before scintillation counting in a Beckmann Coulter LS6500 liquid scintillation counter.

[8] = molecular target: T1, KCNQ3*; design: method as in PMID 29748663; conditions: cited from earlier work
[9] = molecular target: T2, KCNQ5; design: method as in PMID 29748663; conditions: cited from earlier work

Sequence of KCNQ2/3 (O43525 whole entry): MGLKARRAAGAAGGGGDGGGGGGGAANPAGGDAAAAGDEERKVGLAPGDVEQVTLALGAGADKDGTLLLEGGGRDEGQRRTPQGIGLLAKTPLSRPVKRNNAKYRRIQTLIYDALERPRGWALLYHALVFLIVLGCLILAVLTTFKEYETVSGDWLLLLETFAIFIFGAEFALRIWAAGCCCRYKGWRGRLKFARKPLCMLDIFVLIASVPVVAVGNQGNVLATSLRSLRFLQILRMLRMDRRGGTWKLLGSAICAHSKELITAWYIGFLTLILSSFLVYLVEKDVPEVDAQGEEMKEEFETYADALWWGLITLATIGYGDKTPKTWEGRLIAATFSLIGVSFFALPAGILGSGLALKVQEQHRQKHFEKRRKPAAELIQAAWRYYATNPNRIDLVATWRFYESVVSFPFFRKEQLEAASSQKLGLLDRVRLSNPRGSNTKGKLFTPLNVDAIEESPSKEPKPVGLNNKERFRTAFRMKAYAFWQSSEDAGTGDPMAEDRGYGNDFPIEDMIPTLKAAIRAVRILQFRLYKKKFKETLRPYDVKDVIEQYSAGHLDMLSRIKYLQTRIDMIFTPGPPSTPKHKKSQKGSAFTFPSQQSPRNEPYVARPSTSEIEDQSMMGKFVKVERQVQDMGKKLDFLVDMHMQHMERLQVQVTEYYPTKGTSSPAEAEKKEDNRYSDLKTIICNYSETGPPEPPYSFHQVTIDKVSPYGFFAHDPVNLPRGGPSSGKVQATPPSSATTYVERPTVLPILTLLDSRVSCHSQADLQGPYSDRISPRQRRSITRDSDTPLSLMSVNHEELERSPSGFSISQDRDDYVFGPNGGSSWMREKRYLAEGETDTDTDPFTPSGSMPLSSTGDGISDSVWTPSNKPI
Sequence of KCNQ2/3 (O43526 whole entry): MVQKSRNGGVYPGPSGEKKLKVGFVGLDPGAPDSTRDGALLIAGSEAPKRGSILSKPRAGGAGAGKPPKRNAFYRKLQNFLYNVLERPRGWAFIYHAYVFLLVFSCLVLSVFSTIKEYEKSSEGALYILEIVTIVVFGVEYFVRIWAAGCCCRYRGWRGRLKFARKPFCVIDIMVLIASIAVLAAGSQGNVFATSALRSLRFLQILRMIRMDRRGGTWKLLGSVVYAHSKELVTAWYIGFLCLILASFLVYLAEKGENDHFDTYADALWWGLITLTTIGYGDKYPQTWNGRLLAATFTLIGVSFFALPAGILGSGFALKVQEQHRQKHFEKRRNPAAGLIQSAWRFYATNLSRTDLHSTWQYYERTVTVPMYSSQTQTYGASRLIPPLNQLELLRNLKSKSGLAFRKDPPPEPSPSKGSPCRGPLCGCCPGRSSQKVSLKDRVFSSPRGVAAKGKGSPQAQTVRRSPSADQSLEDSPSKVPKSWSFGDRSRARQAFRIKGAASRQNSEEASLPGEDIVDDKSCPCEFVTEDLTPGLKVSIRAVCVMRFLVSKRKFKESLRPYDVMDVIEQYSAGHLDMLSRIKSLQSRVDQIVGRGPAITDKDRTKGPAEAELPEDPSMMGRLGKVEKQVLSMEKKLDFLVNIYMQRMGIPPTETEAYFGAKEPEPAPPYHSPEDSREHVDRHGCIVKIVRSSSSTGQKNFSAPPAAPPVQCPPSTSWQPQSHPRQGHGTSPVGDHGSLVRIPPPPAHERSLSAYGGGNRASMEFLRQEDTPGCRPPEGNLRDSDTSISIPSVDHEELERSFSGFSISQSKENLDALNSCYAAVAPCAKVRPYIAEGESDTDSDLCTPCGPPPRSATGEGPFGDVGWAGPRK

Row | Structure (SMILES) | EC50 [1] [nM] | KCNQ1 activation and deactivation rates ([2]; 30 µM) | EC50 ([2]; ΔV0.5act, read-out: EC50, KCNQ1 activation) [nM] | KCNQ2 activation and deactivation rates ([3]; 4FPG 30 µM, 2FPG 100 µM) | EC50 ([3]; wild-type KCNQ2, ΔV0.5act, read-out: EC50, KCNQ2 activation) [nM] | effects on KCNQ3* [4] | KCNQ4 activation and deactivation rates ([5]; 30 µM) | EC50 ([5]; ΔV0.5act, read-out: EC50, KCNQ4 activation) [nM] | effects on KCNQ5 [6] | effects on KCNQ4 ([5]; dose response) | [3H]GABA binding to KCNQ3* [7] | activation of KCNQ3 [8] | activation of KCNQ5 [9]
1 | NC(C(=O)O)c1ccc(F)cc1 (stereo not shown) [4FPG, 4-(fluorophenyl)glycine] | 61 ± 42 | slowed KCNQ1 deactivation but did not speed its activation | 90 ± 20 | speeded KCNQ2 and KCNQ4 activation and slowed their deactivation | 69 ± 31 | no effects | speeded KCNQ2 and KCNQ4 activation and slowed their deactivation | 49 ± 12 | no effects | – | – | – | –
2 | NCCCC(=O)O [GABA, γ-aminobutyric acid, reference compound] | – | – | – | – | – | – | – | – | – | unable to open | bound | activate only KCNQ3 and KCNQ5 | activate only KCNQ3 and KCNQ5
